Patent US20230338349A1, “LOW DOSE REGIMEN AND FORMULATION OF A 5-METHYL-1,2,4-OXADIAZOL-3-YL COMPOUND” (Eli Lilly and Company, priority 2020, published 2023)

Assay: Plasma concentration of compound of Formula I in the PET occupancy study
Format: in vivo
Settings: human, healthy subjects; for concentration at 0.5 h: approx. 0.5 h; for concentration at 1 h: approx. 1 h; for concentration at 2 h: approx. 2 h; for concentration at 3 h: approx. 3 h; for concentration at 4 h: approx. 4 h; for concentration at 5 h: approx. 5 h; for concentration at 6 h: approx. 6 h; for concentration at 8 h: approx. 8 h; for concentration at 12 h: approx. 12 h; for concentration at 24 h: approx. 24 h
Procedure: Healthy subjects are assigned to 1 of 4 cohorts with 4 subjects in each cohort completing the study. All subjects undergo one baseline PET scan and two post-dose PET scans. A baseline PET scan is performed from up to approximately 14 days before dosing of the compound of Formula I. Overall, each subject receives a single dose of the compound of Formula I and 3 administrations of the [^18F]LSN3316612 PET tracer. Dosing of the compound of Formula I occurs after completion of the baseline PET scan. Scans are conducted at approximately 2 and 24 hours post-dose for the 0.25 mg and 5 mg doses of the compound of Formula I, and at approximately 2 and 24 hours or 30 and 54 hours post-dose for the 1 mg dose of the compound of Formula I. Dynamic PET data of the brain are acquired over 120 min immediately following tracer injection. EO is summarized by the compound of Formula I dose and approximate scanning time.
The compound of Formula I is administered orally in capsule formulation for doses≥3 mg. For doses lower than 3 mg, the compound of Formula I is weighed into a suitable container and dissolved in an appropriate volume of degassed Sprite® or diluent.
Arterial blood samples are collected from all subjects during each PET scan to measure radioactivity to provide input for the PET tracer kinetic analysis. Venous blood samples are collected following dosing of compound of Formula I to measure plasma concentrations of compound of Formula I using a validated liquid chromatography with tandem mass spectrometry assay.

CC(=O)Nc1nc(F)c(CN2CC[C@H](OCc3noc(C)n3)C[C@@H]2C)s1 [compound of Formula I, N-[4-fluoro-5-[[(2S,4S)-2-methyl-4-[(5-methyl-1,2,4-oxadiazol-3-yl)methoxy]-1-piperidyl]methyl]thiazol-2-yl]acetamide]
concentration at 0.5 h (single oral dose 0.25 mg): 0.934 ng/mL
concentration at 1 h (single oral dose 0.25 mg): 0.595 ng/mL
concentration at 2 h (single oral dose 0.25 mg): 0.373 ng/mL
concentration at 3 h (single oral dose 0.25 mg): 0.391 ng/mL
concentration at 4 h (single oral dose 0.25 mg): 0.367 ng/mL
concentration at 5 h (single oral dose 0.25 mg): 0.39 ng/mL
concentration at 6 h (single oral dose 0.25 mg): 0.357 ng/mL
concentration at 8 h (single oral dose 0.25 mg): 0.294 ng/mL
concentration at 12 h (single oral dose 0.25 mg): 0.213 ng/mL
concentration at 24 h (single oral dose 0.25 mg): 0.107 ng/mL
concentration at 0.5 h (single oral dose 1 mg): 6.29 ng/mL
concentration at 1 h (single oral dose 1 mg): 6.24 ng/mL
concentration at 2 h (single oral dose 1 mg): 5.75 ng/mL
concentration at 3 h (single oral dose 1 mg): 4.97 ng/mL
concentration at 4 h (single oral dose 1 mg): 4.28 ng/mL
concentration at 5 h (single oral dose 1 mg): 3.87 ng/mL
concentration at 6 h (single oral dose 1 mg): 3.08 ng/mL
concentration at 8 h (single oral dose 1 mg): 2.45 ng/mL
concentration at 12 h (single oral dose 1 mg): 1.42 ng/mL
concentration at 24 h (single oral dose 1 mg): 0.412 ng/mL
concentration at 30 h (single oral dose 1 mg, approx. 30 h): 0.222 ng/mL
concentration at 54 h (single oral dose 1 mg, approx. 54 h): 0.0735 ng/mL
concentration at 0.5 h (single oral dose 5 mg): 32.4 ng/mL
concentration at 1 h (single oral dose 5 mg): 30.7 ng/mL
concentration at 2 h (single oral dose 5 mg): 36 ng/mL
concentration at 3 h (single oral dose 5 mg): 31.9 ng/mL
concentration at 4 h (single oral dose 5 mg): 31.5 ng/mL
concentration at 5 h (single oral dose 5 mg): 30.6 ng/mL
concentration at 6 h (single oral dose 5 mg): 25.3 ng/mL
concentration at 8 h (single oral dose 5 mg): 17.8 ng/mL
concentration at 12 h (single oral dose 5 mg): 12.5 ng/mL
concentration at 24 h (single oral dose 5 mg): 3.07 ng/mL
